Reference: the supplement of paper PMC10307832

Assays:
Assay in all cases: relative viability (nuclei count vs DMSO), 5 days (fraction); higher = more cells survive
[1] = compound: C1=CC=C2C(=C1)N=C(S2)C(C#N)C3=NC(=NC=C3)NCCC4=CN=CC=C4 + CC1(C)CCC(c2ccc(Cl)cc2)=C(CN2CCN(c3ccc(C(=O)NS(=O)(=O)c4ccc(N[C@H](CCN5CCOCC5)CSc5ccccc5)c(S(=O)(=O)C(F)(F)F)c4)cc3)CC2)C1 [Navitoclax] (partner 0.5 µM)
Outline: (§1)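 Each reported value is a median over duplicate plates. It expresses relative viability: treated-well nuclei count divided by vehicle-well nuclei count. Lung cancer cell lines in 1536-well plates were dosed by pin tool a day after seeding, alone with one drug or with a fixed anchor-drug dose plus five library-drug doses (not always all listed) in √10 steps, and nuclei were counted after 5 days.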

NVP-TAE684 + Bortezomib = compound: COc1cc(N2CCC(N3CCN(C)CC3)CC2)ccc1Nc1ncc(Cl)c(Nc2ccccc2S(=O)(=O)C(C)C)n1 [NVP-TAE684] + CC(C)C[C@H](NC(=O)[C@H](Cc1ccccc1)NC(=O)c1cnccn1)B(O)O [Bortezomib] (partner 0.002 µM)
Outline: as §1

Vandetanib + Tozasertib = compound: COc1cc2/c(=N/c3ccc(Br)cc3F)nc[nH]c2cc1OCC1CCN(C)CC1 [Vandetanib] + Cc1cc(Nc2cc(N3CCN(C)CC3)nc(Sc3ccc(NC(=O)C4CC4)cc3)n2)n[nH]1 [Tozasertib] (partner 0.1 µM)
Outline: as §1

NVP-TAE684 + Linsitinib = compound: COc1cc(N2CCC(N3CCN(C)CC3)CC2)ccc1Nc1ncc(Cl)c(Nc2ccccc2S(=O)(=O)C(C)C)n1 [NVP-TAE684] + C[C@]1(O)C[C@@H](c2nc(-c3ccc4ccc(-c5ccccc5)nc4c3)c3c(N)nccn32)C1 [Linsitinib] (partner 1 µM)
Outline: as §1

| Cell Line | relative viability ([1]; first compound 0.005 µM) | relative viability ([1]; first compound 0.01581 µM) | relative viability ([1]; first compound 0.05 µM) | relative viability ([1]; first compound 0.1581 µM) | relative viability ([1]; first compound 0.5 µM) | relative viability (NVP-TAE684 + Bortezomib; first compound 0.6325 µM) | relative viability (NVP-TAE684 + Bortezomib; first compound 2 µM) | relative viability (Vandetanib + Tozasertib; first compound 0.02 µM) | relative viability (Vandetanib + Tozasertib; first compound 0.06325 µM) | relative viability (Vandetanib + Tozasertib; first compound 0.2 µM) | relative viability (Vandetanib + Tozasertib; first compound 0.6325 µM) | relative viability (Vandetanib + Tozasertib; first compound 2 µM) | relative viability (NVP-TAE684 + Linsitinib; first compound 0.2 µM) | relative viability (NVP-TAE684 + Linsitinib; first compound 2 µM) | relative viability (NVP-TAE684 + Bortezomib; first compound 0.2 µM) | relative viability (NVP-TAE684 + Linsitinib; first compound 0.6325 µM) |
| --- | --- | --- | --- | --- | --- | --- | --- | --- | --- | --- | --- | --- | --- | --- | --- | --- |
| EMC-BAC-2 | 0.823 | 1.19 | 1.14 | 1.2 | 1.01 | 1.01 | 0.734 | 0.317 | 0.307 | 0.151 | 0.319 | 0.286 | 0.771 | 0.51 | – | – |
| NCI-H1437 | 1.02 | 1.15 | 1.14 | 1.17 | 1.08 | 0.487 | 0.322 | 0.408 | 0.402 | 0.134 | 0.402 | 0.389 | 1.01 | 0.545 | 0.452 | 1.02 |
| NCI-H1944 | 1.05 | 1.06 | 0.983 | 1.06 | 1.04 | – | – | 0.262 | 0.265 | 0.235 | 0.239 | 0.243 | 1.16 | 1.3 | – | 1.17 |
| NCI-H2342 | – | – | – | – | – | – | – | 0.592 | 0.552 | 0.463 | 0.461 | 0.493 | – | – | – | – |
| NCI-H1563 | – | – | – | – | – | 0.755 | 0.725 | – | – | – | – | – | 1.07 | – | – | 1.25 |
| EBC-1 | 0.402 | 0.426 | 0.317 | 0.472 | 0.298 | 0.544 | 0.341 | – | – | – | – | – | 0.784 | 0.745 | 0.515 | 0.785 |
| NCI-H2170 | – | 0.587 | 0.59 | 0.626 | 0.566 | – | – | 0.75 | 0.733 | 0.796 | 0.685 | 0.764 | – | – | – | – |
| NCI-H1648 | – | – | – | – | – | – | – | 0.515 | 0.492 | 0.569 | 0.657 | 0.318 | – | – | – | – |
| NCI-H1623 | – | – | – | – | – | – | – | 0.431 | 0.4 | 0.388 | 0.41 | 0.445 | – | – | – | – |
| A549 | 1.26 | 1.19 | 1.11 | 1.31 | 1.29 | – | – | – | – | – | – | – | 0.539 | 0.532 | – | 0.603 |
| NCI-H661 | – | – | – | – | – | 0.88 | 0.842 | 0.345 | 0.345 | 0.315 | 0.364 | 0.368 | 0.454 | 0.625 | 0.791 | 0.58 |
| Calu-6 | 0.785 | 0.834 | 0.819 | 0.961 | 0.768 | 0.918 | 0.435 | – | – | – | – | – | 0.805 | 0.634 | 0.875 | 0.935 |
| NCI-H1703 | 1.01 | 1.04 | 1.02 | 1.14 | 1.02 | 0.275 | 0.129 | – | – | – | – | – | 0.862 | 0.588 | 0.315 | 0.932 |
| SK-MES-1 | 1.76 | 1.19 | 1.3 | 1.28 | 1.02 | – | – | 0.93 | 0.84 | 1.01 | 1.04 | 0.847 | 0.985 | 0.837 | – | 1.05 |
| NCI-H1299 | 1.08 | 1.11 | 1.05 | 1.11 | 1.09 | 1.02 | 1.06 | – | – | – | – | – | 0.915 | 0.909 | 1.03 | 1.02 |
| ChaGo-K-1 | 0.955 | – | 0.838 | 1.21 | 0.954 | 0.691 | 0.952 | 0.2 | 0.239 | 0.248 | 0.212 | 0.215 | – | – | 1.18 | – |
| NCI-H358 | – | – | – | – | – | – | – | 0.111 | 0.106 | 0.104 | 0.0913 | 0.102 | 0.73 | 0.274 | – | 0.488 |
| NCI-H1650 | 0.964 | 1.17 | 1.22 | 1.31 | 1.07 | 0.183 | 0.173 | 0.354 | 0.24 | 0.146 | 0.378 | 0.374 | – | – | 0.194 | – |
| NCI-H1395 | 1.23 | – | 1.03 | 1.08 | 1.22 | – | – | 0.752 | 0.753 | 0.845 | 0.837 | 0.723 | 1.3 | 0.862 | – | 0.766 |
| LK-2 | – | 0.931 | 0.824 | 0.916 | 0.843 | – | – | 0.18 | 0.165 | 0.195 | 0.182 | 0.172 | 0.708 | 0.623 | – | 0.659 |
| SW 900 | – | – | – | – | – | – | – | 0.688 | 0.417 | 0.142 | 0.634 | 0.609 | – | – | – | – |
| NCI-H650 | – | – | – | – | – | 0.562 | 0.614 | 0.732 | 0.69 | – | 0.809 | 0.723 | 0.982 | 0.652 | 0.784 | 0.638 |
| NCI-H522 | – | – | – | – | – | – | – | 0.588 | 0.57 | 0.593 | 0.621 | 0.597 | – | – | – | – |
| NCI-H1793 | 0.31 | 0.398 | 0.519 | 0.456 | 0.509 | – | – | 0.335 | 0.351 | 0.195 | 0.341 | 0.242 | 0.734 | 0.9 | – | 0.857 |
| IA-LM | – | 0.816 | 0.817 | 0.826 | 0.568 | 0.563 | 0.583 | – | – | – | – | – | 0.386 | 0.627 | 0.679 | 0.503 |
| NCI-H1792 | – | 0.571 | 0.631 | 0.961 | 0.451 | 0.967 | 0.819 | – | – | – | – | – | 0.451 | 0.504 | 0.779 | 0.509 |
| LCLC-103H | – | – | – | – | – | 1.11 | – | 0.613 | 0.443 | 0.548 | 0.481 | 0.555 | 1.06 | 1.15 | 1.09 | 1.23 |
| ABC-1 | – | – | – | – | – | 0.256 | 0.169 | 0.177 | 0.173 | 0.189 | 0.183 | 0.117 | 0.825 | 0.358 | 0.223 | 0.742 |
